Several values for one entry are separate records, joined by “and”; a condition that tells them apart may be missing. Equal values may be shown once. Where a name gives a salt, the structure may show the parent alone. Read-outs that look alike come from different tables or passages of the source. Where a SMILES comes first, the peptide text is derived from it.
Experiments:
[1] = pH of aqueous solution of solubilizing compound mixed with oleic acid; format: physicochemical; conditions: solubilizing compound in water with 0.833 mol equivalents of oleic acid
[2] = Estimation of the interaction between oleic acid and the test substance; format: physicochemical
[3] = Dynamic laser light scattering (DLS) of oleic acid micro-/nanoemulsions; format: physicochemical; conditions: for Mean Size by Intensity: DLS, emulsion with oleic acid; for Part: percentage of the peak in the sample
[4] = Estimation of solubility of the test substance in H2O; format: physicochemical
[5] = log P of the test substance
[6] = water (H2O), test substance mixed with oleic acid

Molecule	pH [1]	Interaction with Oleic Acid [2]	Mean Size by Intensity [3] [nm]	Part [3] [%]	also measured
Cc1c[nH]cn1	8.90	X, E/S	224	96.7	–
4-(4,6-Diamino-2,2-dimethyl-2H-[1,3,5]triazine-1-yl	11.28	X, E, S	–	–	Dissolved (H2O) [4]: (X)
CC(=O)NC1CCSC1=O (racemic) [DL-N-Acetylhomocysteine thiolactone, reference compound]	10.70	–	–	–	–
CN(C)C(=N)NC(=N)N.Cl [1,1-Dimethylbiguanide hydrochloride, reference compound]	9.20	–	–	–	–
Cc1ccccc1NC(=N)Nc1ccccc1C [1,3-Di-o-tolyl-guanidine]	–	–	–	–	logP [5, 6]: 3.01
Cc1ccccc1NC(=N)NC(=N)N [1-(o-Tolyl)biguanide]	11.53	X, E	850	95.5	Dissolved (H2O) [4]: (X); logP [5, 6]: 1.41
N=C(N)NCCC(=O)O [3-Guanidinopropionic acid]	11.71	X, E	153	64.7	logP (physchem): -3.77
O=C(O)CCCNC1=NCCN1 [4-(4,5-Dihydro-1H-imidazol-2-ylamino)-butyric acid]	8.63 and 11.5	X, E	627	58.9	logP [5, 6]: -1.6
Cl.N=C(N)Nc1ccc(C(=O)O)cc1 [4-Guanidinobenzoic acid hydrochloride]	11.19	X, E	–	–	Dissolved (H2O) [4]: (X); logP [5, 6]: 0.604
N=C(N)NCCCC(=O)O [4-Guanidinobutyric acid]	10.41	X, E	–	–	logP (physchem): -3.44
N=C(N)NCCCCCC(=O)O [6-Guanidinohexanoic acid]	9.01	(X), E	–	–	Dissolved (H2O) [4]: (X); logP [5, 6]: -3.6
N=C(N)N[C@@H](CCC(=O)O)C(=O)O [(S)-(−)-2-Guanidinoglutaric acid]	10.15	X, E	–	–	logP [5, 6]: -3.14
N=C(N)NCCCCN.O=S(=O)(O)O [Agmatin sulfate]	10.53	X, S	–	–	logP (physchem): -1.81
C[C@H](NC(=O)[C@H](Cc1ccccc1)NC(=O)[C@@H](N)CCCNC(=N)N)C(=O)O [Arg-Phe-Ala acetate] (H-Arg-Phe-Ala-OH; N-terminus and C-terminus assumed)	–	–	–	–	logP: -3.6
N=C(N)NCCC[C@H](N)C(=O)N[C@@H](Cc1ccccc1)C(=O)O [Arg-Phe]	–	–	–	–	logP [5]: -3.34
CC(=O)O.CC(=O)O.N=C(NCCCCCCNC(=N)NC(=N)Nc1ccc(Cl)cc1)NC(=N)Nc1ccc(Cl)cc1 [Chlorhexidine diacetate, 1,1′-hexamethylenbis[5-(4-chlorphenyl)-biguanide], reference compound]	6.51 and 9.58	X, S	–	–	Dissolved (H2O) [4]: (X)
CN/C(=N/CCSCc1nc[nH]c1C)NC#N [Cimetidine, 2-cyan-1-methyl-3-[2-(5-methylimidazol-4-ylmethylsulfanyl)-ethyl]-guanidine, reference compound]	9.54	X, E	239	67.2	Dissolved (H2O) [4]: ((X)); logP (physchem): 0.19
CN/C(=N\[N+](=O)[O-])NCc1cnc(Cl)s1 [Clothianidine, (E)-1-(2-chlor-1,3-thiazol-5-ylmethyl)-3-methyl-2-nitroguanidine]	9.81	X, E	153	53.9	Dissolved (H2O) [4]: (X); logP [5]: -2.03
CN(CC(=O)O)C(=N)N [Creatine]	–	(X), E	–	–	logP (physchem): -0.884
C[C@@H](N[C@@H](CCCN=C(N)N)C(=O)O)C(=O)O [D-(+)-Octopine]	6.70	X, E	435	94.7	–
COC(=O)[C@H](N)CCCNC(=N)N.Cl.Cl [D-arginine methyl ester dihydrochloride]	11.35	X, S	–	–	logP (physchem): -2.11
CC(=O)NCC(=O)O.CC(=O)NCC(=O)O.N=C(N)c1ccc(N=NNc2ccc(C(=N)N)cc2)cc1 [Diminazene aceturate (basic), Diminazene aceturate, reference compound]	–	X, S, (E)	426	60.7	–
N=C(N)NCCC[C@H](NC(=O)CN)C(=O)O [Gly-Arg] (H-Gly-Arg-OH; N-terminus and C-terminus assumed)	–	–	–	–	logP: -5.06
NCC(=O)N[C@@H](Cc1c[nH]cn1)C(=O)O [Gly-His] (H-Gly-His-OH; N-terminus and C-terminus assumed)	–	–	–	–	logP: -2.42
NCC(=O)N[C@@H](Cc1ccccc1)C(=O)O [Gly-Phe, reference compound] (H-Gly-Phe-OH; N-terminus and C-terminus assumed)	–	–	–	–	logP [5]: -0.65

Molecule	pH [1]	Interaction with Oleic Acid [2]	Mean Size by Intensity [3] [nm]	Part [3] [%]	also measured
NC(N)=NCC(=O)O [Guanidine acetic acid]	6.20	(X), E/S	–	–	Dissolved (H2O) [4]: ((X)); log P [5]: −2.387
N=C(N)N [Guanidinehydrochloride]	12.71	X, E	–	–	logP (physchem): -1.03
NC(N)=NCCCC[C@H](N)C(=O)O [H-Homoarg-OH]	8.66	X, E	107	68.5	–
N=C(N)NCCC[C@H](NC(=O)[C@@H](N)Cc1c[nH]cn1)C(=O)O [His-Arg] (H-His-Arg-OH; N-terminus and C-terminus assumed)	–	–	–	–	logP: -5.74
c1c[nH]cn1 [Imidazole]	–	–	–	–	logP (physchem): -0.67
Cl.N=C(N)NC[C@H](N)C(=O)O [L-2-Amino-3-guanidinopropionic acid hydrochloride]	11.05	X, E	113	87.2	logP (physchem): -3.81
NC(N)=NOCC[C@H](N)C(=O)O [L-Canavanine free base]	8.67 and 9.04	(X), S, E and X, E	–	–	–
CC(=N)NCCCC[C@H](N)C(=O)O [L-NIL]	9.12	X, E	349	94.1	–
NCCCC[C@H](N)C(=O)N[C@@H](CCCN=C(N)N)C(=O)O [Lys-Arq acetate] (H-Lys-Arg-OH)	–	–	–	–	logP: -5.06
Nc1nc(N)nc(N)n1 [Melamine]	8.25	X, S	–	–	Dissolved (H2O) [4]: (X); logP (physchem): -0.961
N=C(N)NC(N)=O.O.O=S(=O)(O)O [N-Guanylurea sulfate salt hydrate]	–	X, E	–	–	logP (physchem): 3.54
NC(=NCC[C@H](N)C(=O)O)NO [N-ω-Hydroxy-L-norarginine]	9.51	X, E, S	325	93.9	–
NC(=NCCC[C@H](N)C(=O)O)N[N+](=O)[O-] [N-ω-Nitro-L-arginine]	11.95	X, E	85.5	46.7	–
CC(=O)O.CNC(=N)NCCC[C@H](N)C(=O)O [N-ω-monomethyl-L-arginine acetate]	8.49	X, E	–	–	–
CN(C)C(N)=NCCC[C@H](N)C(=O)O.Cl.Cl [NG,NG-Dimethylarginine dihydrochloride]	9.45	X, E	22.9	87.4	–
[H]/N=C(\N/C(=N/[H])Nc1ccc(Cl)cc1)NC(C)C [Proguanil hydrochloride, 1-(4-chlorphenyl)-5-isopropylbi-guanide, reference compound]	7.66	X, E	–	–	Dissolved (H2O) [4]: (X); logP [5, 6]: 2.53
NC(N)=NS(=O)(=O)c1ccc(N)cc1 [Sulfaguanidine, 4-amino-N-(diaminomethylen)benzensulfonamide, reference compound]	–	X, S	–	–	logP (physchem): -1.24
C[C@@H](O)[C@H](N)C(=O)N[C@@H](CCCCN)C(=O)N1CCC[C@H]1C(=O)N[C@@H](CCCNC(=N)N)C(=O)O [Thr-Lys-Pro-Arq (Tuftsin)] (H-TKPR-OH; N-terminus and C-terminus assumed)	–	–	–	–	logP: -3.98
N=C(N)NCCC[C@H](NC(=O)[C@@H](N)Cc1ccc(O)cc1)C(=O)O [Tyr-Arg (Kyotorphin acetate), L-tyrosyl-L-arginine]	8.54	X, E	–	–	logP (physchem): -4
NC(N)=O [Urea, reference compound]	8.59	–	341	96.3	Interaction with Oleic Acid ([2]; 60° C.): ((X))
Aminophenylacetic acid [reference compound]	9.23	((X))	–	–	Dissolved (H2O) [4]: (X); log P [5]: 0.73
Argininosuccinic acid disodium salt hydrate	9.93	X, E	721	74.6	–
Poly-L-arginine HCl [Poly-L-arginine HCl (70.000-150.000 MW)]	–	X, S	–	–	–
polyhexamethylenbiguanide (PHMB) [Polyhexanide −5% (2300 bis 3100 MW), reference compound]	5.61 and 8.61	X, S	–	–	–

Reference: patent US9127233B2, “Device and method for solubilizing, separating, removing and reacting carboxylic acids in oils, fats, aqueous or organic solutions by means of micro-or nanoemulsification” (priority 2010, dated 2015)
